From patent US4531001A, “2-β-D-ribofuranosylselenazole-4-carboxamide compounds” (priority 1983, dated 1985)
Several values for one entry are separate records, joined by “and”; a condition that tells them apart may be missing. Equal entries are not always repeated.

Tests used:
[1] = system: Lewis lung carcinoma; test: Antitumor activity against Lewis lung carcinoma, Example 14 (Table IV); format: in vivo, B6D 2F 1 male mice; parameters: Treated Group Survival Time: unit not given here; conditions: for Treated Group Survival Time: mean, control 19.0
Procedure: As illustrative examples of the antitumor use of COMPOUNDS 1 and 2, Examples 12 through 14, below, are given. […] The tests utilized in these illustrative examples were conducted by the Developmental Therapeutics Program, Division of Cancer Treatment, National Cancer Institute. The tests were supervised by this agency utilizing their standard protocols and procedures. All tests conformed to these protocols and all tests were evaluated under the criteria defined by these protocols. The following representative examples illustrate confirmed activity of the illustrative compounds of the invention against screening tumor systems of the National Cancer Institute.
For purposes of the following examples, the abbreviation IP stands for intraperitoneal and IV stands for intravenous. The mean and median survival times are calculated in instruction 14 (revised 6/78) of the Screening Data Summary, Developmental Therapeutics Program, Division of Cancer Treatment, National Cancer Institute. The contents of this Screening Data Summary including appropriate revisions are herein incorporated by reference.
In the illustrated examples below, the vehicle used as carrier for the drug was injected (minus any drug therein) into the control animals at the same level of use of the vehicle in the drug treated animals in order to eliminate any vehicle effect of the tests.
In both the control group and the drug treated group in Example 12, the animals were inoculated on day zero with a homogenate of 10^6 seed cells of Lewis lung carcinoma. For Example 12, drug treatment was started on day one and COMPOUND 1 given once daily for nine days. Day five was utilized as the cut-off date for deaths attributable to toxicity of the drug. […] Efficacy of treatment was determined by comparing median survival time of the control animals and is expressed as percentage increase of treated animals/control animals (T/C).
COMPOUND 2, 2-(5-phosphono-β-D-ribofuranosyl)selenazole-4-carboxamide was screened for Lewis lung carcinoma activity in a manner similar to that described in Example 12. In this example, B6D 2F 1 male mice were challenged with Lewis lung carcinoma. The mean survival time of the test animals was compared to that of appropriate control animals. […] At 13 mg/kg the treated, surviving mice have a T/C of 315 percent and 4 out of 10 cures were achieved.

[2] = system: L-1210; test: Growth inhibition in suspension cell culture, L-1210; format: cell-based; conditions: Mus musculus, L1210, 72 hours, cell count 50 percent of untreated control, read-out: ID50 (the source's name)
Procedure: (§1) In further tests, growth-inhibitory effects of COMPOUND 1 and COMPOUND 2 were measured against 3 mouse tumor lines in suspension cell culture. Cell cultures were initiated at a density of 50,000 cells/ml in medium RPMI 1630 supplemented with 10 percent fetal calf serum. Composition of this culture medium and details of the culture procedure followed the published method (G. E. Moore, A. A. Sandberg and K. Ulrich, Suspension Cell Culture and in vivo and in-vitro chromosome constitution of mouse leukemia L1210, Journal of the National Cancer Institute 36, 405-415, 1966). Cultures were maintained at 37 degrees in stationary suspension culture under a 95 percent air+5 percent CO2 atmosphere. Test compounds were added to treated cultures at the time of initiation, and were present continually. After 72 hours, 40-fold dilutions of drug-treated and untreated control cultures were prepared in 0.9 percent NACl solution, and cells were counted on an electronic particle counter. The growth-inhibitory effects are expressed as ID50 values, namely, test compound inhibitory dosages or concentrations required to decrease cell count in treated cultures to 50 percent of the cell count of untreated control cultures.

[3] = system: P388; test: Growth inhibition in suspension cell culture, P388; format: cell-based; conditions: Mus musculus, 72 hours, cell count 50 percent of untreated control, read-out: ID50 (the source's name)
Procedure: as §1

[4] = system: B16 Melanoma; test: Growth inhibition in suspension cell culture, B16 Melanoma; format: cell-based; conditions: Mus musculus, 72 hours, cell count 50 percent of untreated control, read-out: ID50 (the source's name)
Procedure: as §1

[5] = system: 3 mouse tumor lines; test: Growth inhibition in suspension cell culture, representative tumor lines; format: cell-based
Procedure: as §1

## NC(=O)c1c[se]c([C@@H]2O[C@H](COP(=O)(O)O)[C@@H](O)[C@H]2O)n1 [COMPOUND 2, 2-β-D-Ribofuranosylselenazole-4-Carboxamide 5'-phosphate]
[1]; 3 mg/kg
  Cures: 0/10
  Percent Treated Animals/Control Animals (T/C): 109%
  Treated Group Survival Time: 20.8
[1]; 6 mg/kg
  Cures: 0/10
  Percent Treated Animals/Control Animals (T/C): 115%
  Treated Group Survival Time: 22.0
[1]; 9 mg/kg
  Cures: 1/10
  Treated Group Survival Time: 12.5
[1]; 13 mg/kg
  Cures: 4 out of 10 and 4/10
  Percent Treated Animals/Control Animals (T/C): 315%
  Treated Group Survival Time: 60.0
[1]; 20 mg/kg
  Cures: 2/10
  Treated Group Survival Time: 12.0
[1]; 33 mg/kg
  Cures: 3/10
  Treated Group Survival Time: 12.5
[1]; 50 mg/kg
  Cures: 3/10
  Treated Group Survival Time: 12.5
[1]; 75 mg/kg
  Cures: 1/10
  Treated Group Survival Time: 15.5
[1]; mean survival time versus control
  antitumor activity in words: effective antitumor agent
[2]
  IC50: 58 nM
[3]
  IC50: 66 nM
[4]
  IC50: 7500 nM
[5]; cell culture
  growth inhibition compared with COMPOUND 1, in words: appears to be superior to COMPOUND 1
[5]; representative tumor lines in cell culture
  growth inhibition in words: inhibit growth in cell culture for representative tumor lines at extremely low dosage
